# Measurements taken from patent US9265774B2, “Methods, compounds and pharmaceutical compositions for treating anxiety and mood disorders” (New York University, priority 2011, dated 2016).
# Columns and labels:
# [1] = system: Fos expression in the PVH; experiment: Fos expression in the PVH in the tail suspension test; format: in vivo, mice; settings: dp6FNE 3 mg/kg i.p. before a 6 min tail suspension test, with prazosin 0.2 mg/kg
# Method: In the RFS study, mice were subjected to 4 daily 15 min swims as described above and were injected i.p. with either vehicle or dp6FNE (3 mg/kg) 15 min prior to the 5th swim. In the TST study, animals were injected similarly before a 6 min test. […] The animals were anesthetized and perfused for immuno-histochemistry 70 min after the start of the swim or tail suspension. Brains were processed as described previously for double-label immunofluorescent Fos/tyrosine hydroxylase staining of all sections through the LC and for single-label Fos staining through the full PVH (Stone et al., Brain Res (2009) 1291: 21-31). […] In the tail suspended mice the analogous reductions were 53.5±7.2% (LC) and 36.7±3.1 (PVH). […] These findings thus indicate that a dose of […] dp6FNE that has preferential inhibitory effects on the LC during depression exists.
# [2] = system: model of chronic depression in mice (repeated forced swim)
# Excerpt: We administered the pro-drugs shortly before one or more tests of antidepressant activity including reversal of immobility during tail suspension and forced swimming and attenuation of anhedonia produced by endotoxin administration. […] (Stone et al., Eur. J. Pharmacol. (2001) 420: 97-102) Because dp6FNE like all other antidepressants has an initial anorexic effect and acutely reduces the consumption of sweet solutions, in the test for anhedonia it was necessary to employ a non-nutritive hedonic behavior, FUST (sniffing of estrous female urine). […] (Stone et al., Neuropsychopharmacology (2011) 14: 319-331); Sun et al., J. Neurosci. Methods (2003) 126:35-40; Sun et al., Behavioral Pharmacology (2008) 19: 334-338).
# Mice were swum for 15 min/d on 4 d and tested for the response to acute i.p dp6FNE (1 or 3 mg/kg) alone or in combination with 8-OHDPAT (0.05 mg/kg) and corticosterone (3 mg/kg) on the 5th and final swim (15 min after drug administration). […] Comparison groups receiving currently available antidepressants were treated acutely i.p. or chronically (14 d osmotic pumps) with either desmethylimipramine (DMI) (10 mg/kg), fluoxetine (5 mg/kg), escitalopram (5 mg/kg), bupropion (10 mg/kg) or ketamine (10 mg/kg).
# Although corticosteroids are well known to produce depression (Gourley et al., Biol Psychiatry (2008) 64: 884-890), this occurs at high doses only. […] Mice were swum for 3 d and given either vehicle (0.8% ethanol) or corticosterone (12.5 μg/ml) in their drinking water.
# As described in Example 4a, the cocktail was tested in a mouse model of chronic depression (RFS).
smiles,measurement,setting,value
"CC(C)(C)C(=O)Oc1cc(F)c(C(O)CN)cc1OC(=O)C(C)(C)C (stereo not drawn) [dp6FNE, dipivalyl-6-fluoronorepinephrine]",reduction in gene expression (Fos) in the PVH,[1],36.7±3.1
same,persistence of anti-immobility effect,"[2]; dp6FNE 0.5 mg/kg, i.p., repeated daily",at least 11 daily treatments
same,increase of distance swum,"[2]; dp6FNE 1 mg/kg acute i.p., 15 min before 5th swim, with prazosin 0.2 mg/kg",+77.5±5.2%
same,"decrease of immobility, maximum effect","[2]; dp6FNE 3 mg/kg acute i.p., 15 min before 5th swim, with prazosin 0.2 mg/kg",−39.4±16.6%
same,"signs of toxicity (reduced arousal, disheveled fur coat) after repeated treatment","[2]; repeated daily treatment, no formal measures",no obvious signs of toxicity
same,effect of oral administration on immobility,"[2]; tube fed with prazosin 0.2 mg/kg, 45 min prior to the 5th swim",dose-dependent reduction in immobility
